According to ChEMBL document CHEMBL1201862, “PubChem BioAssay data set” (2004):
The source made the active and inactive calls.

How the values were obtained:
[1] = cytotoxicity in HMLE control line with eGFP shRNA, dose response, counter-screen for HMLE_sh_ECad selective toxicity project, cell-based, HMLE_sh_eGFP, luminescence (AID 463074); type: functional, Homo sapiens;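 note: HMLE human mammary epithelial cells expressing control shRNA against eGFP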
[2] = Luminescence Cell-Based Dose Retest to Confirm Inhibitors of Cancer Stem Cells. [Related pubchem assays (depositor defined):AID2717, AID2721]; type: functional; settings: Homo sapiens
Mu-type opioid receptor = Mu-type opioid receptor (Homo sapiens, UniProt P35372); assay: (§1) Counterscreen for agonists of heterodimerization of the mu 1 (OPRM1) and delta 1 (OPRD1) opioid receptors: Luminescence-based cell-based high throughput dose response assay to identify agonists of OPRM1 homodimerization.; type: functional
Sequence of Mu-type opioid receptor (P35372 whole entry): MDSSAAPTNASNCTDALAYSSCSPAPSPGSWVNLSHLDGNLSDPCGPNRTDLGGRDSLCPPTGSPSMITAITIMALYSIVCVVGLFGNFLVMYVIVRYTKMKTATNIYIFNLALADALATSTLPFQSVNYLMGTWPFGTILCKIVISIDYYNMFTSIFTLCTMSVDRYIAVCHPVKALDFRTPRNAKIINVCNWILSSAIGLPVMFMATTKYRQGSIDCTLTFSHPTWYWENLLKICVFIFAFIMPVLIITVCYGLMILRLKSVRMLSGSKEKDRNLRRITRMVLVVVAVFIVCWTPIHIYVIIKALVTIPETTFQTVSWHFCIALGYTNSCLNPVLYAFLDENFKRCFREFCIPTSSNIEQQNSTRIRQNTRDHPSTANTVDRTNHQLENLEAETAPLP

[3] = biological target: Delta-type opioid receptor (Homo sapiens, UniProt P41143); assay: as §1, with “of OPRD1” for “of OPRM1”, “homodimerization. [Related pubchem assays (depositor defined):AID504326, AID504355, AID504692, AID504904, AID504905]” for “homodimerization.”; type: functional
Sequence of Delta-type opioid receptor (P41143 whole entry): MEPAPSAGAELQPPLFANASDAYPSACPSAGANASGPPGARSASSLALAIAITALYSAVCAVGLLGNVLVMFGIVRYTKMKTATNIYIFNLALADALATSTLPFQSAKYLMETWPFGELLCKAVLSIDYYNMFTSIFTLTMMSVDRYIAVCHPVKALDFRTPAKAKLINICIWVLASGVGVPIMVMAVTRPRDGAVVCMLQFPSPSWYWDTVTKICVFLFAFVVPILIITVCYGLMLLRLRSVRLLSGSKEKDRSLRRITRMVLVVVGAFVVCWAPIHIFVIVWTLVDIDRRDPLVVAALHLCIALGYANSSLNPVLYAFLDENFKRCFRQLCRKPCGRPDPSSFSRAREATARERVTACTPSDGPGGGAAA

[4] = biological target: 5-hydroxytryptamine receptor 5A (Homo sapiens, UniProt P47898); assay: Counterscreen for agonists of OPRM1-OPRD1 heterodimerization: luminescence-based cell-based high throughput dose response assay to identify agonists of 5-hydroxytryptamine (serotonin) 5A receptor (HTR5A). [Related pubchem assays (depositor defined):AID504326, AID504355, AID504692, AID504904, AID504905]; type: functional
Sequence of 5-hydroxytryptamine receptor 5A (P47898 whole entry): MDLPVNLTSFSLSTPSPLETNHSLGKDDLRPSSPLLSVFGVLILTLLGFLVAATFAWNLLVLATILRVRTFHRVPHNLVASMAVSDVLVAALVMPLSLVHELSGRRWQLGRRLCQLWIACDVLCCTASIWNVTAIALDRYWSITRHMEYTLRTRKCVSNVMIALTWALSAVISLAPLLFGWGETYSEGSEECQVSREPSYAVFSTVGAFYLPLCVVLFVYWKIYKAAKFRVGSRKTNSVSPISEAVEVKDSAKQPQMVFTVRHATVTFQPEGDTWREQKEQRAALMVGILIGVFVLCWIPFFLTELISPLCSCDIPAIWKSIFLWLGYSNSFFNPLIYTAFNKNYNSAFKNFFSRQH

[5] = biological target: T1, High affinity choline transporter 1 (Homo sapiens, UniProt Q9GZV3); assay: CHT inhibitors, dose response, cell-based, 5-point CRC, membrane potential dye (AID 504840); type: functional
T1 sequence (Q9GZV3 whole entry): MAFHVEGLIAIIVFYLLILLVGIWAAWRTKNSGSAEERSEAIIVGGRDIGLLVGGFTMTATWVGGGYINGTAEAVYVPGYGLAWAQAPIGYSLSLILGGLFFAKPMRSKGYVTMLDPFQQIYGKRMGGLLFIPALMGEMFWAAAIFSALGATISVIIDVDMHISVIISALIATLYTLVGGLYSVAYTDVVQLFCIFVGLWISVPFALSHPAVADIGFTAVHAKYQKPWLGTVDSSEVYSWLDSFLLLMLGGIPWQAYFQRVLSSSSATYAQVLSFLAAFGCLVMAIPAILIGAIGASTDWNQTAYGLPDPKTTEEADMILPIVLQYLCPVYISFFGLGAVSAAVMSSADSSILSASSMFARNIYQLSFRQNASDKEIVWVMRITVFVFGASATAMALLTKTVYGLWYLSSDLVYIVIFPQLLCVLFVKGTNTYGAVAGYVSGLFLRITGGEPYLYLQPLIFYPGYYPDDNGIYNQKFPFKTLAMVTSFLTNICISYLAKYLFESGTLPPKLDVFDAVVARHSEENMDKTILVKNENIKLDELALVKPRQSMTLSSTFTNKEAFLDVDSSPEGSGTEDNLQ

[6] = biological target: T2, Microphthalmia-associated transcription factor (Homo sapiens, UniProt O75030); assay: TRPM1 promoter luciferase signal decrease, dose response, MITF inhibitor project, cell-based, SK-MEL-5, cherry-picked, set 3 (AID 493073); type: functional
T2 sequence (O75030 whole entry): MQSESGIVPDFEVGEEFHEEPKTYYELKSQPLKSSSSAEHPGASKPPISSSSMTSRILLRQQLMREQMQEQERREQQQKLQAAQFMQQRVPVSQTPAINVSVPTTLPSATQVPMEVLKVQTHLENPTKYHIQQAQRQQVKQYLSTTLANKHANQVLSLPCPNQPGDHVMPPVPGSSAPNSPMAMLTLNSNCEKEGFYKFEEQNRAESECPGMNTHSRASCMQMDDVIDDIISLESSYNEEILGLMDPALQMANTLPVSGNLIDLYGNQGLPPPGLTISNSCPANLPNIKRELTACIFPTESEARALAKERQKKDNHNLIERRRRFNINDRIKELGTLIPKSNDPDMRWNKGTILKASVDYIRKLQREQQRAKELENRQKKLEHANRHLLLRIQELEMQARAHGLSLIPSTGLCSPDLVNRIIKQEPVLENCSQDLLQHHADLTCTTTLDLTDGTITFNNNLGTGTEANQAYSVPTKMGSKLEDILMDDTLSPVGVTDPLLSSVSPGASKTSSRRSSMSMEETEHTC

Cytochrome P450 2C9 = Cytochrome P450 2C9 (Homo sapiens, UniProt P11712)
Sequence of Cytochrome P450 2C9 (P11712 whole entry): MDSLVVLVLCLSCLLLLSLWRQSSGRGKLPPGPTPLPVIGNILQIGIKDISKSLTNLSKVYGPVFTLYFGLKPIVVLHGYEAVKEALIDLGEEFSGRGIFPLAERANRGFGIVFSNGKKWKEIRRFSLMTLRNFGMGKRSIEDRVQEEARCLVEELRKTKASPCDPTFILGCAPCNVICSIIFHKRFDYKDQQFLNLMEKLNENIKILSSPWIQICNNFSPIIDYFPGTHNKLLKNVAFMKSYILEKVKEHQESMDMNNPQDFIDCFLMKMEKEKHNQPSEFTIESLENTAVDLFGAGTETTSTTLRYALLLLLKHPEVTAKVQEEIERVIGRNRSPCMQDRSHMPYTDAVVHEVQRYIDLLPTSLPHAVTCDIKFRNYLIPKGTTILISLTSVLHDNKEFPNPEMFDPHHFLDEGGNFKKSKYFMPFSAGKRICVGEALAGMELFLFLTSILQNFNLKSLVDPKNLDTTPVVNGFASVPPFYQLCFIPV

Cytochrome P450 1A2 = biological target: T3, Cytochrome P450 1A2 (Homo sapiens, UniProt P05177);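 note: PubChem cytochrome P450 panel assay, CYP1A2 panel member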
T3 sequence (P05177 whole entry): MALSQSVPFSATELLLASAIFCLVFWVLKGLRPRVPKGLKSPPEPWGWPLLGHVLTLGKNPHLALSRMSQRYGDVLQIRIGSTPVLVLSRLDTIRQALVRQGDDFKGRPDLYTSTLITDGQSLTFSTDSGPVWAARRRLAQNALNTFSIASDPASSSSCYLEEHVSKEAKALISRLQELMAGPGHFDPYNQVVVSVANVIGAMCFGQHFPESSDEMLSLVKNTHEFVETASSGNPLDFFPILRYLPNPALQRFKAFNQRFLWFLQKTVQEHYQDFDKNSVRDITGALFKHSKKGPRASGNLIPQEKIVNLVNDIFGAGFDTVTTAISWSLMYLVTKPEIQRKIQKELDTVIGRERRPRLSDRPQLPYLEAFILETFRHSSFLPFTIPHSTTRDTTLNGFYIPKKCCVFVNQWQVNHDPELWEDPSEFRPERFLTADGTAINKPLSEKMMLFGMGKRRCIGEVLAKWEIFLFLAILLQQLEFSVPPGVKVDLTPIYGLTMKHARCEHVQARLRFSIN

[7] = Luminescence Cell-Based Dose Confirmation HTS to Identify Activators of 5'UTR Stem-Loop Driven Alpha-Synuclein mRNA Translation in H4 Neuroglioblastoma Cells. [Related pubchem assays: 1829 (Project Summary), 1814 (Primary HTS)]; type: functional
[8] = Luminescence Cell-Based Dose Response HTS to Identify Activators of Luciferase Translation or Activity in H4 […] Cells. [Related pubchem assays: 1829 (Project Summary), 1814 (Primary HTS)]; type: functional
H4 = assay: Luminescence Cell-Based Dose Response HTS to Identify Activators of 5'UTR Stem-Loop Driven Prion Protein mRNA Translation in H4 Neuroglioblastoma Cells. [Related pubchem assays: 1829 (Project Summary), 1814 (Primary HTS)]; type: functional; settings: Homo sapiens
Cytochrome P450 2C19 = Cytochrome P450 2C19 (Homo sapiens, UniProt P33261); assay: Cytochrome panel assay with activity outcomes. Panel member name: p450-cyp2c19 Compounds with AC50 equal or less than 10 uM are considered active; type: functional
Sequence of Cytochrome P450 2C19 (P33261 whole entry): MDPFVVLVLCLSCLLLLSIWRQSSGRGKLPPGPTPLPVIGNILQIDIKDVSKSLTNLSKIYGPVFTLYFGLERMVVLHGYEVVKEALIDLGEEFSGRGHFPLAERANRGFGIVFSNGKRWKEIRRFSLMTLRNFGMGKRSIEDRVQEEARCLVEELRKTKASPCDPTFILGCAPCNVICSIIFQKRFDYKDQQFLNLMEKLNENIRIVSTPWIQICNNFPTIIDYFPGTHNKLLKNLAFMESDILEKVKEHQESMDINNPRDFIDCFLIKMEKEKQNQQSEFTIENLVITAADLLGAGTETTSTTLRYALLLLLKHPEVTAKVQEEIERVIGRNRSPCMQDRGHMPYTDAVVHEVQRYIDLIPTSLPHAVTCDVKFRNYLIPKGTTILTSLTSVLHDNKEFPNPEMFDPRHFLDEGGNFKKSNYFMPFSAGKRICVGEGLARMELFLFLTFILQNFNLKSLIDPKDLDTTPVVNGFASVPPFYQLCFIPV

For Cc1cc(C)nc(-n2ncc3c2CC(c2cccc(Cl)c2)CC3=O)n1 (centres undefined), the AC50 [1] was 46.8 µM (active) and the AC50 [2] was 29.1 µM (active).
For Brc1ccc(NC2=Nc3ccccc3CC2)cc1, the EC50 (Mu-type opioid receptor) was 52.1 µM (inactive), the EC50 [3] was > 92.5 µM (inactive) and the EC50 [4] was > 92.5 µM (inactive).
With CC1CCCCC1NC(=O)c1c(O)n2ccccc2nc1=O (centres undefined) the IC50 [5] was 4.79 µM (active).
With Cc1ccc(C(=O)N/C(=C\c2ccc(-c3ccccc3[N+](=O)[O-])o2)C(=O)NCCN(C)C)cc1 the AC50 [6] was 4.87 µM (active).
For COc1ccc(C(C(=O)NC2CCCCC2)N(C(=O)Cc2c[nH]c3ccccc23)c2ccc(NC(C)=O)cc2)cc1OC (centres undefined), the AC50 (Cytochrome P450 2C9) was 12.6 µM (inconclusive), the EC50 (Mu-type opioid receptor) was > 92.5 µM (inactive) and the EC50 [3] was > 92.5 µM (inactive). For the same compound, the AC50 (Cytochrome P450 1A2) was 25.1 µM (inconclusive) and the EC50 [4] was > 92.5 µM (inactive).
For CC(NC(=O)c1ccc([N+](=O)[O-])o1)C12CC3CC(CC(C3)C1)C2 (centres undefined), the AC50 [6] was 15.1 µM (active), the EC50 [7] was > 120 µM (not active) and the AC50 [2] was 4.68 µM (active). For the same compound, the EC50 [8] was > 120 µM (not active) and the EC50 (H4) was 13.8 µM (active).
For CC1=NC(C)(C)Cc2ccccc21.O=C(O)c1ccccc1O, the IC50 [5] was 13.2 µM (active) and the AC50 (Cytochrome P450 2C19) was “inconclusive”.
